Results published in ChEMBL document CHEMBL4270637, “Small molecule-induced degradation of the full length and V7 truncated variant forms of human androgen receptor” (Eur J Med Chem, 2018).
Calls of active or inactive are those of the source. No cut-off for these calls is given here.

What was measured:
[1] = molecular target: T1, Androgen receptor (Homo sapiens, UniProt P10275); assay: Inhibition of R1881-induced full length AR transcriptional activity in human LNCAP cells harboring AR2PB-eGFP construct after 72 hrs by fluorescence assay; format: cell-based
T1 sequence (P10275 whole entry): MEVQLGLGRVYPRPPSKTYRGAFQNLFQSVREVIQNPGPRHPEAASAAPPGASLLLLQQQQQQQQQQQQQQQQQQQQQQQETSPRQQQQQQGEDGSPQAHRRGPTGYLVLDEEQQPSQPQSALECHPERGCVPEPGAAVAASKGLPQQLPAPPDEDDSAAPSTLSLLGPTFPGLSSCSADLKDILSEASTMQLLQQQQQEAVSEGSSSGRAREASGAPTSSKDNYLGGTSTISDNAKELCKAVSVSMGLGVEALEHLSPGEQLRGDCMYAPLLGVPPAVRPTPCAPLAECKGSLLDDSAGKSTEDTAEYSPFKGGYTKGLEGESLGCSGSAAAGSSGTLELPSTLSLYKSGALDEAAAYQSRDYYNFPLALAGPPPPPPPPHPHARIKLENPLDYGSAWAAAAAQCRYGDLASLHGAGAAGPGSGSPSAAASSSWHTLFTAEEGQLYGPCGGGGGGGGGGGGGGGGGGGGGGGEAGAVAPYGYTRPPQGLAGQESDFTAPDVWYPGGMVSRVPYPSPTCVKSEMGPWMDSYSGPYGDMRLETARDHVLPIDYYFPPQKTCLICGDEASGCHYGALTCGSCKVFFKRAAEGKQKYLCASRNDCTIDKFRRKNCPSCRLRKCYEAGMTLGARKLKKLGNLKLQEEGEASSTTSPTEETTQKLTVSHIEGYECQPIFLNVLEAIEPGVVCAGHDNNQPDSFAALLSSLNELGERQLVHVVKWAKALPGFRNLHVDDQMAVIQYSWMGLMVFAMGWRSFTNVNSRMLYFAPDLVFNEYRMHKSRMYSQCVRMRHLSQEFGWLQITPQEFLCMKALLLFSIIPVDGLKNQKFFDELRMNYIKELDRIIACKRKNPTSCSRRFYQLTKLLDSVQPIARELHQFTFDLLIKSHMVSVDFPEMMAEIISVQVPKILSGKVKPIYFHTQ

[2] = molecular target: Androgen receptor (Homo sapiens, UniProt P10275); assay: Inhibition of R1881-induced transcriptional activity of human AR V7 truncated mutant expressed in human PC3 cells harboring pGL3-ARR3tk-NLuc after 24 hrs by luciferase reporter gene assay; format: cell-based
[3] = system: LNCaP; assay: Cytotoxicity against human LNCAP cells harboring AR2PB-eGFP construct after 72 hrs by MTS assay; format: cell-based
[4] = system: PC-3; assay: Cytotoxicity against human PC3 cells harboring pGL3-ARR3tk-NLu/human AR V7 truncated mutant after 72 hrs by MTS assay; format: cell-based; conditions: pc-3, 72 h
[5] = molecular target: T2, Androgen receptor (Homo sapiens) (UniProt P10275); assay: Induction of full length AR degradation in human LNCAP cells at 2 to 20 uM after 5 hrs by Western blot analysis; format: cell-based
T2 sequence (whole entry): T1 sequence (P10275 whole entry)

[6] = system: LNCaP; assay: Induction of apoptosis in human LNCAP cells assessed as PARP cleavage at 2 to 20 uM after 5 hrs by Western blot analysis; format: functional, cell-based
[7] = system: CWR22R; assay: Cytotoxicity against human 22Rv1 cells assessed as growth inhibition at 5 uM after 72 hrs by presto-blue dye based assay; format: functional, cell-based
[8] = molecular target: T1, Androgen receptor; assay: Inhibition of full length AR transcriptional activity in human LNCAP cells harboring AR2PB-eGFP construct assessed as reduction in R1881-induced secreted PSA level after 72 hrs by fluorescence assay; format: cell-based
[9] = molecular target: T2, Androgen receptor (Homo sapiens); conditions: at 10 µM
Description: Antagonist activity at full length YFP-tagged AR (unknown origin) expressed in HEK293T cells assessed as inhibition of R1881-induced nuclear translocation at 10 uM after 4 hrs by DAPI staining based confocal microscopic method

[10] = system: CWR22R; assay: Cytotoxicity against human 22Rv1 cells assessed as growth inhibition at lower concentration after 72 hrs by presto-blue dye based assay; format: functional, cell-based
[11] = molecular target: Estrogen receptor (Homo sapiens) (UniProt Q92731+P03372); assay: Inhibition of estradiol-induced transcriptional activity of human ER expressed in human PC3 cells harboring pGL3-ERE-NLuc at 2 uM after 24 hrs by luciferase reporter gene assay; format: cell-based
[12] = molecular target: T2, Androgen receptor (Homo sapiens); assay: Inhibition of R1881-induced transcriptional activity of human AR expressed in human PC3 cells harboring pGL3-ARR3tk-NLuc at 2 uM after 24 hrs by luciferase reporter gene assay; format: cell-based
[13] = system: CWR22R; assay: Cytotoxicity against human 22Rv1 cells assessed as growth inhibition at 0.5 uM after 72 hrs by presto-blue dye based assay; format: functional, cell-based
[14] = molecular target: T2, Androgen receptor (Homo sapiens); assay: Induction of full length AR degradation in human LNCAP cells assessed as reduction in AR mRNA level at 2 to 20 uM after […] by RT-PCR method; format: cell-based
[15] = molecular target: T3, Glucocorticoid receptor (Homo sapiens) (UniProt P04150); assay: Inhibition of dexamethasone-induced transcriptional activity of human GR expressed in human PC3 cells harboring pGL3-ARR3tk-NLuc at 2 uM after 24 hrs by luciferase reporter gene assay; format: cell-based
T3 sequence (whole entry): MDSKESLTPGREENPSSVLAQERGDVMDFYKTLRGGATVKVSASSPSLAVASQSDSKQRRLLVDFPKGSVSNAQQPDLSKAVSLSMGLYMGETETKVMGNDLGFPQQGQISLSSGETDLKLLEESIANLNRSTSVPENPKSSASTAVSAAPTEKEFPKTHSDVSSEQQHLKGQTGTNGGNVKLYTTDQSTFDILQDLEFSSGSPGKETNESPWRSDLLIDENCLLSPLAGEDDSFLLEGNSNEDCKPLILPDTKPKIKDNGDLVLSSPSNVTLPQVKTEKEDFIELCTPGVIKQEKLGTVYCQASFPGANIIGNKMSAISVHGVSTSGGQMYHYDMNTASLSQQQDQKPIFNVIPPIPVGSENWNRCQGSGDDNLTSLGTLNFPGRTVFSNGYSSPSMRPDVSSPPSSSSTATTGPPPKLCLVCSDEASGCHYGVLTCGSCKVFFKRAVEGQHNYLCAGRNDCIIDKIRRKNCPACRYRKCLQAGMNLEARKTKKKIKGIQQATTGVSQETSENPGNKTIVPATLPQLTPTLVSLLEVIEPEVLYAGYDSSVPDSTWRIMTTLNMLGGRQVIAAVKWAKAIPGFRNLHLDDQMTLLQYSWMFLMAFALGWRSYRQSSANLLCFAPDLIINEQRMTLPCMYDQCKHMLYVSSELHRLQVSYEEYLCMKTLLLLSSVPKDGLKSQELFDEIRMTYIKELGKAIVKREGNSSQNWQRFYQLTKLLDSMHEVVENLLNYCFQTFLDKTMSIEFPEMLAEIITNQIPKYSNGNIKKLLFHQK

[16] = system: PC-3; assay: Cytotoxicity against human PC3 cells assessed as growth inhibition after 72 hrs by presto-blue dye based assay; format: cell-based; conditions: pc-3, 72 h
[17] = molecular target: Tubulin; assay: Inhibition of tubulin polymerization (unknown origin); format: protein-complex assay, Homo sapiens
[18] = molecular target: T4, Progesterone receptor (Homo sapiens) (UniProt P06401); assay: Inhibition of progesterone-induced transcriptional activity of human PR expressed in human PC3 cells harboring pGL3-ARR3tk-NLuc at 2 uM after 24 hrs by luciferase reporter gene assay; format: cell-based
T4 sequence (whole entry): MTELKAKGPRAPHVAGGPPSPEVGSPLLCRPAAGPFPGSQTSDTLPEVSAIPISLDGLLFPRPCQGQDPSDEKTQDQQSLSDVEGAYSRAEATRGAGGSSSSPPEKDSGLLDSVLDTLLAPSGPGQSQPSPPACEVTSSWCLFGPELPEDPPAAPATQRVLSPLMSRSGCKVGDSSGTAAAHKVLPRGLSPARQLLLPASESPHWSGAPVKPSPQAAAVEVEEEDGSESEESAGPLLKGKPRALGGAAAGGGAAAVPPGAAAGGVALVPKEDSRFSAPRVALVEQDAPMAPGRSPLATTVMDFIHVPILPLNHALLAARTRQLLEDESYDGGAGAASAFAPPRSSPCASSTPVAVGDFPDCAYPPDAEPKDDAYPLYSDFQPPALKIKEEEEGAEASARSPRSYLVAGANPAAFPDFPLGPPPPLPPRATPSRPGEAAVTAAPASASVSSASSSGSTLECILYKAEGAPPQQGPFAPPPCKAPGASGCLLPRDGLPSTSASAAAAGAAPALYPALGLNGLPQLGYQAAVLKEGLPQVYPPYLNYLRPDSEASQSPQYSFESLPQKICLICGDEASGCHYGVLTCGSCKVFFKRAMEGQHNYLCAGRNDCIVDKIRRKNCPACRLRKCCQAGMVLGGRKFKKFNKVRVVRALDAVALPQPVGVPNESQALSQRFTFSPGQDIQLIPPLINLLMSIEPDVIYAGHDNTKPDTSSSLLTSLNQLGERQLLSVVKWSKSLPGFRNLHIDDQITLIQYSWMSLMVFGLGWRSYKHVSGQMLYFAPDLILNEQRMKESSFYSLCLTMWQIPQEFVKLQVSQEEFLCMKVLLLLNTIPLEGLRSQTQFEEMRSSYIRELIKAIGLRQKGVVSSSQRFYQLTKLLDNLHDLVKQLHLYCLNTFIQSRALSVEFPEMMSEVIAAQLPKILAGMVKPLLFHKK

[19] = molecular target: T5, Androgen receptor (Rattus norvegicus, UniProt P15207); assay: Displacement of Fluormone-DHT from rat GST-tagged rat AR LBD expressed in insect cells after 4 hrs by fluorescence polarization assay
T5 sequence (P15207 whole entry): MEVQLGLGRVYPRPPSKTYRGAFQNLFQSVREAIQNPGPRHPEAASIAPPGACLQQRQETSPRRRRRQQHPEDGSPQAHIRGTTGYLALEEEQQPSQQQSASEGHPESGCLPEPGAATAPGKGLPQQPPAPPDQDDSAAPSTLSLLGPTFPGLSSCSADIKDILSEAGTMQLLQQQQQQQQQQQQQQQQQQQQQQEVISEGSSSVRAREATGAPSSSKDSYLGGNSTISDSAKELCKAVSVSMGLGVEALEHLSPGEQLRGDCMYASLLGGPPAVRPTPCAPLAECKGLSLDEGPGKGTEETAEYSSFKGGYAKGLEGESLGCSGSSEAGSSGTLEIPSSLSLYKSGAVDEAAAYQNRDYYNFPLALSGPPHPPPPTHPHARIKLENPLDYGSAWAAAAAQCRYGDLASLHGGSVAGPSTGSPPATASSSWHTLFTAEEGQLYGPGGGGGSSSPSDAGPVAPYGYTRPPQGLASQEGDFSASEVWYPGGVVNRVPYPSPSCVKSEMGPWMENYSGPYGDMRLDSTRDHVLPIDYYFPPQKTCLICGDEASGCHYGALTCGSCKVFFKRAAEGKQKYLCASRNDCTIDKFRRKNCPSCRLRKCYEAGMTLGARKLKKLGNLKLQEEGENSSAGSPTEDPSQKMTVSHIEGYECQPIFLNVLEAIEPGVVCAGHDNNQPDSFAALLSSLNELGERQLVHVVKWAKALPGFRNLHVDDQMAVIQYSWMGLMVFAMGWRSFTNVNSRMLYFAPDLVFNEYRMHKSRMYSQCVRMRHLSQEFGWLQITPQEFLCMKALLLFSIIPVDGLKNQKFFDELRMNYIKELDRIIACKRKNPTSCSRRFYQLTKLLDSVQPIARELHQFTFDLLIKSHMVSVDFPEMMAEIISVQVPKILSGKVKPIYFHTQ

IC50 [1] [nM] | IC50 [2] [nM] | Activity [5] | IC50 [8] [nM] | inhibition [9] | inhibition [11] | inhibition [12] | Activity [14] | inhibition [15] | IC50 [17] [nM] | inhibition [18] | IC50 [19] [nM] | Structure (SMILES) | Activity [3] | Activity [4] | Activity [6] | growth inhibition (GI) [7] | growth inhibition (GI) [10] | growth inhibition (GI) [13] | growth inhibition (GI) [16]
> 10000 | > 10000 |  |  |  |  |  |  |  |  |  |  | COc1cc(C=C2c3cccc(Cl)c3C(=O)c3c(Cl)cccc32)cc(OC)c1O |  |  |  |  |  |  | 
 |  |  |  |  |  |  |  |  |  |  |  | O=C1c2c(Cl)cccc2C(=Cc2ccccc2O)c2cccc(Cl)c21 | Toxic | Toxic |  |  |  |  | 
1480 | 10000 | Active | 730 | inactive |  |  |  |  |  |  |  | COc1cccc(C=C2c3cccc(Cl)c3C(=O)c3c(Cl)cccc32)c1O |  |  | inactive | Active |  |  | 
1890 to 6000 | 10000 | inactive | 340 | inactive |  |  |  |  |  |  |  | COc1ccc(C=C2c3cccc(Cl)c3C(=O)c3c(Cl)cccc32)cc1O |  |  | inactive |  | Active |  | 
316 | < 10000 | Active | 350 | inactive | inactive | Active | inactive | inactive | 10000 | inactive | 625 to 2500 | O=C1c2ccccc2C(=Cc2cccc(O)c2)c2ccccc21 |  |  | inactive |  |  | Active | Toxic
1140 | 10000 | inactive | 170 | inactive |  |  |  |  |  |  |  | COc1ccc(C=C2c3cccc(Cl)c3C(=O)c3c(Cl)cccc32)c(OC)c1O |  |  | inactive |  | Active |  | 
232 | < 10000 | Active | 100 | inactive | inactive | Active | inactive | inactive |  | inactive |  | COc1ccc(C=C2c3ccccc3C(=O)c3ccccc32)c(O)c1 |  |  | inactive |  | Active |  | 
